The values below come from the Kinase Knowledgebase extract (Sharma et al. 2016).

SMILES strings stand for the structures. Values joined by “and” are separate entries in the source; they are usually repeats but may differ in a detail not shown here. Equal values may be shown once.

PIK3CA (human), sequence (P42336 whole entry, looked up): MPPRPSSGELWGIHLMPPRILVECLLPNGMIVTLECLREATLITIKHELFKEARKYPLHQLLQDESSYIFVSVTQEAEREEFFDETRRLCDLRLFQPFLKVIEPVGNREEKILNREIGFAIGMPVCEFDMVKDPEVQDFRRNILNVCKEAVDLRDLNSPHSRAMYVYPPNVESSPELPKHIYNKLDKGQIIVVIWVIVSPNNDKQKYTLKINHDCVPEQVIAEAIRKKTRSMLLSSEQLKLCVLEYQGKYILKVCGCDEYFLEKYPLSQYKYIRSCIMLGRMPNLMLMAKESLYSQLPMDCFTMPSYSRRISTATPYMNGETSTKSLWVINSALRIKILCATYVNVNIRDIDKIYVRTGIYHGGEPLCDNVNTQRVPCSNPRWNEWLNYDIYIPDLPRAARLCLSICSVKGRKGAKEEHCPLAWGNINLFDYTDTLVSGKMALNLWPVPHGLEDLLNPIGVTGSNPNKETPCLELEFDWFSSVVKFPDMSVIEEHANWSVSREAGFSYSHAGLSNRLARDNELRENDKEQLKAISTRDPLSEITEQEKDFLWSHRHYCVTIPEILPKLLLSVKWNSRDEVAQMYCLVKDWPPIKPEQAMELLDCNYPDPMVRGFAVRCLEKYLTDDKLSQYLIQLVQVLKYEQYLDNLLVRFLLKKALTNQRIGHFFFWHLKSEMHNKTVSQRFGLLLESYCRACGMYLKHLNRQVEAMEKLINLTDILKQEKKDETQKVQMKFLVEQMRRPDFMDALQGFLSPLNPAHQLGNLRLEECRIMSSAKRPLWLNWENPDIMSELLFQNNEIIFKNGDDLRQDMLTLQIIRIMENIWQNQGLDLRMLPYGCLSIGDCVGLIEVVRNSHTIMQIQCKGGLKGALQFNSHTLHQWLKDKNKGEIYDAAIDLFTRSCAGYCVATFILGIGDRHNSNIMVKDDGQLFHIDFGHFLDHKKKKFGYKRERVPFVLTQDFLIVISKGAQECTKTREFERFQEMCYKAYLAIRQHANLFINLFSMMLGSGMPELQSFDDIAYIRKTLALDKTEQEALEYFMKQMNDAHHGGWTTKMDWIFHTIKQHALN
PIK3CD (Human), sequence (O00329 whole entry, looked up): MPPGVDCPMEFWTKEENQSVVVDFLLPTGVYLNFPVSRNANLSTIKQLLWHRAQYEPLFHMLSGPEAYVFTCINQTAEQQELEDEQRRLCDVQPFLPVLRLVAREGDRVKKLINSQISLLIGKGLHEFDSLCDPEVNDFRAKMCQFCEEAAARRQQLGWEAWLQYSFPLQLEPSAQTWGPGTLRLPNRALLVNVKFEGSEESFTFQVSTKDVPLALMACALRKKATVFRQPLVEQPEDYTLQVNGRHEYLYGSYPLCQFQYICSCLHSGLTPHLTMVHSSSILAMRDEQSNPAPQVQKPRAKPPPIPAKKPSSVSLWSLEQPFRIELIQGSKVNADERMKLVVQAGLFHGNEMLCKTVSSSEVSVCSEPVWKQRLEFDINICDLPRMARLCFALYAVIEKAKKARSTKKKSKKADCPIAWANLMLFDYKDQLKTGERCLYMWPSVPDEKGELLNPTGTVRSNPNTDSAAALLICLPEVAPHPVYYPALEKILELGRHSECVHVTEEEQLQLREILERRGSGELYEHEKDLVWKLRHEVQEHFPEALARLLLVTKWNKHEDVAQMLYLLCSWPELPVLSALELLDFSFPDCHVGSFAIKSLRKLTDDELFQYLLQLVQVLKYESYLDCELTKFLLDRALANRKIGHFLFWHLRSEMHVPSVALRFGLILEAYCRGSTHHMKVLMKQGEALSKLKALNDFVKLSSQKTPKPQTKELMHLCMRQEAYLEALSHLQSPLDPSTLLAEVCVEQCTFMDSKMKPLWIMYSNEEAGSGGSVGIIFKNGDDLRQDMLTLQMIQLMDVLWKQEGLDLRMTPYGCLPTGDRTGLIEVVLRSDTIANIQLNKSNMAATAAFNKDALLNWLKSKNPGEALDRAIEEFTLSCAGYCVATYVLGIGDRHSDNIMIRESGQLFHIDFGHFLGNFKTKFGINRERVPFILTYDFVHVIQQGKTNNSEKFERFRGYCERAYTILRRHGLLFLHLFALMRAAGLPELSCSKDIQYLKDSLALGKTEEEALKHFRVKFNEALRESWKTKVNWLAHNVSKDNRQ

One assay concerns the target PIK3CD (Human) (UniProt O00329). In words: Enzyme Assay.
As for `Cc1nc(-c2cn3c(n2)-c2ccc(-c4cnn(C)c4C4CN(C(C)C)CCO4)cc2OCC3)n(C(C)C)n1` (configuration not stated), the half-inhibitory concentration (IC50) – broadly, the concentration at which inhibition is half-maximal – is 1.2 nM and 1.08 nM.

Another assay addresses PIK3CA (human) (UniProt P42336). In words: Inhibition of PIK3CA Kinase Activity.
On to `Cc1nc(-c2cn3c(n2)-c2ccc(-c4cnn(C)c4C4CN(C(C)C)CCO4)cc2OCC3)n(C(C)C)n1` (configuration not stated), for which the IC50 was 17.9 nM and 107 nM and 41.5 nM. On the same count and under the same terms, as for `Cc1nc(-c2cn3c(n2)-c2ccc(OC4(CC5CC5)CN(C(C)C)C4)cc2OCC3)n(C(C)C)n1`, the figure is 70.7 nM. For the molecule `Cc1nc(-c2cn3c(n2)-c2ccc(OC4(CC(C)C)CN(C(C)C)C4)cc2OCC3)n(C(C)C)n1`, the IC50 was determined as 278 nM. The same measure, in the same setting: in the case of `Cc1nc(-c2cn3c(n2)-c2cc(-c4ccnn4[C@@H]4CCCN(C5COC5)C4)c(F)cc2OCC3)n(C(C)C)n1` it was 36.7 nM; in that of `Cc1nc(-c2cn3c(n2)-c2ccc(-c4cn[nH]c4C4CCCN(C(C)C)C4)cc2OCC3)n(C(C)C)n1` (configuration not stated), 22.9 nM and 7.46 nM.

`CC(Oc1ccc2c(c1)OCCn1cc(-c3ncnn3C(C)C)nc1-2)C1CCN(C(C)C)CC1` (configuration not stated): the IC50 is 6.36 nM. Still for that read-out and setting: as for `CC(C)n1ncnc1-c1cn2c(n1)-c1ccc(-c3ccccc3S(N)(=O)=O)cc1OCC2`, the figure is 242 nM. Still for that read-out and setting: in the case of `Cc1nc(-c2cn3c(n2)-c2cc([C@@H](C)N4CCN(C(C)(C)CO)CC4)c(F)cc2OCC3)n(C(C)C)n1` it was 263 nM.

Regarding `Cc1nc(-c2cn3c(n2)-c2ccc(-c4ccnn4C4CCN(C(C)C)CC4)cc2OCC3)n(C(C)C)n1`, the concentration for half-maximal inhibition (IC50) amounted to 33.4 nM. Still for that read-out and setting: as for `CCN1CCN(C(C)c2cc3c(cc2F)OCCn2cc(-c4nc(C)nn4C(C)C)nc2-3)CC1` (configuration not stated), the figure is 86.8 nM; as for `Cc1nc(-c2cn3c(n2)-c2ccc(-n4ccnc4C4CCCN(C(C)C)C4)cc2OCC3)n(C(C)C)n1` (configuration not stated), 125 nM.

Take `Cc1nc(-c2cn3c(n2)-c2ccc(N4CCC[C@@H]4CN4CCCC4)cc2OCC3)n(C(C)C)n1`: the IC50 stood at 22 nM. The molecule `Cc1nc(-c2cn3c(n2)-c2cc(C(C)N4CCN(CC(C)(C)O)CC4)c(C)cc2OCC3)n(C(C)C)n1` (configuration not stated) gave an IC50 of 76.2 nM. On the same count and under the same terms, as for `Cc1nc(-c2cn3c(n2)-c2ccc(-c4cnn(C)c4C4CC(N(C)C(C)C)CCO4)cc2OCC3)n(C(C)C)n1` (configuration not stated), the figure is 219 nM and 49.8 nM and 81.2 nM; as for `Cc1nc(-c2cn3c(n2)-c2ccc(N4CCCC4CN(C)C)cc2OCC3)n(C(C)C)n1` (configuration not stated), 14 nM and 6.62 nM. The same measure, in the same setting: as for `Cc1nc(-c2cn3c(n2)-c2cc([C@H](C)N4CCN(C(C)C)CC4)c(F)cc2OCC3)n(C(C)C)n1`, the figure is 59.9 nM.
